In brackets after ≈: the same amount, converted by molar mass.
Key:
[1] = Solubility of compound at pH 7 buffer; format: physicochemical
[2] = Intrinsic clearance in human liver microsomes at […] preincubated for 5 mins followed by NADPH addition measured after 5 to 30 mins by LC-MS/MS analysis; format: ADME; conditions: read-out: CLH
[3] = Half life in Harlan nu/nu mouse at 10 mg/kg, iv administered as single dose by LC-MS/MS analysis; format: ADME, organism-based; conditions: in vivo
[4] = Cmax in Harlan nu/nu mouse at 10 mg/kg, po administered as single dose by LC-MS/MS analysis; format: ADME, organism-based; set-up: dose 10 mg/kg, route oral; conditions: in vivo
[5] = Half life in Harlan nu/nu mouse at 10 mg/kg, po administered as single dose by LC-MS/MS analysis; format: ADME, organism-based; conditions: in vivo
[6] = Cmax in Sprague-Dawley rat at 10 mg/kg, iv administered as single dose by LC-MS/MS analysis; format: ADME, organism-based; set-up: dose 10 mg/kg, route intravenous; conditions: in vivo
[7] = Cmax in Sprague-Dawley rat at 10 mg/kg, po administered as single dose by LC-MS/MS analysis; format: ADME, organism-based; set-up: dose 10 mg/kg, route oral; conditions: in vivo
[8] = Tmax in Sprague-Dawley rat at 10 mg/kg, po administered as single dose by LC-MS/MS analysis; format: ADME, organism-based; conditions: in vivo
[9] = Oral bioavailability in Sprague-Dawley rat at 10 mg/kg administered as single dose by LC-MS/MS analysis; format: ADME, organism-based; conditions: in vivo
[10] = Cmax in Beagle dog at 10 mg/kg, iv administered as single dose by LC-MS/MS analysis; format: ADME, organism-based, Canis lupus familiaris; set-up: dose 10 mg/kg, route intravenous; conditions: in vivo
[11] = Clearance in Beagle dog at 10 mg/kg, iv administered as single dose by LC-MS/MS analysis; format: ADME, organism-based, Canis lupus familiaris; conditions: in vivo
[12] = Half life in Beagle dog at 10 mg/kg, iv administered as single dose by LC-MS/MS analysis; format: ADME, organism-based, Canis lupus familiaris; conditions: in vivo
[13] = Cmax in Beagle dog at 10 mg/kg, po administered as single dose by LC-MS/MS analysis; format: ADME, organism-based, Canis lupus familiaris; set-up: dose 10 mg/kg, route oral; conditions: in vivo
[14] = Tmax in Beagle dog at 10 mg/kg, po administered as single dose by LC-MS/MS analysis; format: ADME, organism-based, Canis lupus familiaris; conditions: in vivo
[15] = Half life in Beagle dog at 10 mg/kg, po administered as single dose by LC-MS/MS analysis; format: ADME, organism-based, Canis lupus familiaris; conditions: in vivo
[16] = Oral bioavailability in Beagle dog at 10 mg/kg administered as single dose by LC-MS/MS analysis; format: ADME, organism-based, Canis lupus familiaris; conditions: in vivo
[17] = test system: KM12; experiment: Antiproliferative activity against human KM12 cells expressing TRKA protein incubated for 72 hrs by cell titer-glo assay; conditions: KM12, 72 h
[18] = test system: NCI-H2228; experiment: Antiproliferative activity against human NCI-H2228 cells expressing ALK protein incubated for 72 hrs by cell titer-glo assay; conditions: NCI-H2228, 72 h
[19] = Antiproliferative activity against human MV411 cells incubated for 72 hrs by cell titer-glo assay; format: functional, cell-based; conditions: MV4-11, 72 h
[20] = Antiproliferative activity against human SR786 cells expressing ALK protein incubated for 72 hrs by cell titer-glo assay; format: functional, cell-based; conditions: SR-786, 72 h
[21] = target: Mast/stem cell growth factor receptor Kit (Homo sapiens, UniProt P10721); experiment: Inhibition of KIT (unknown origin) in presence of gamma33-ATP
Sequence of Mast/stem cell growth factor receptor Kit (P10721 whole entry): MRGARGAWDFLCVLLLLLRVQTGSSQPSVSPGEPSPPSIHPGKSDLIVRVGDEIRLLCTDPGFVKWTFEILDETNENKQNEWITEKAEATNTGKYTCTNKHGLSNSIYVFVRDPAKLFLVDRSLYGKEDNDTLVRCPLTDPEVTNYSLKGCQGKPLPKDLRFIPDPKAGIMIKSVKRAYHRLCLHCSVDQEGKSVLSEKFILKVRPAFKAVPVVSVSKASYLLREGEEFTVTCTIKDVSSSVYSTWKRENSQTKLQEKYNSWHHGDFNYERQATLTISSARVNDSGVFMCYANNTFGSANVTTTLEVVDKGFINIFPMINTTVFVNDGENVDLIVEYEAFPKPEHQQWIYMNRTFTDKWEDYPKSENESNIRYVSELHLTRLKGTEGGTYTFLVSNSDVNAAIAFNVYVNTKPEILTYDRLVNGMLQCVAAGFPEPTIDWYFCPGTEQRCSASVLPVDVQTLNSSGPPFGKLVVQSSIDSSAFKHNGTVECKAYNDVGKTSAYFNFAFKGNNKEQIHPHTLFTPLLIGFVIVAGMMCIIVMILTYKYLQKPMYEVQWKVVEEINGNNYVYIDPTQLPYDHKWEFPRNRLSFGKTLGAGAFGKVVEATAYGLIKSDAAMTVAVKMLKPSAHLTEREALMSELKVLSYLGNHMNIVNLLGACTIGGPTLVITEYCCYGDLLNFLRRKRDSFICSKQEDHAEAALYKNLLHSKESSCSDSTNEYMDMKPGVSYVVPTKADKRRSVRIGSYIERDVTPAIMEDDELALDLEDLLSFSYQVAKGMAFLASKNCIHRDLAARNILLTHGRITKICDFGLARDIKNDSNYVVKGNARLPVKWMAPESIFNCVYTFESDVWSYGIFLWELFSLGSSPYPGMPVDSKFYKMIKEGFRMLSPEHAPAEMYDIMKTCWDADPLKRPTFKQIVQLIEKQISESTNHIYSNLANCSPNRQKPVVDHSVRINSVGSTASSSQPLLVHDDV

[22] = target: T1, Eukaryotic elongation factor 2 kinase (Homo sapiens, UniProt O00418); experiment: Inhibition of EEF2K (unknown origin) in presence of gamma33-ATP
T1 sequence (O00418 whole entry): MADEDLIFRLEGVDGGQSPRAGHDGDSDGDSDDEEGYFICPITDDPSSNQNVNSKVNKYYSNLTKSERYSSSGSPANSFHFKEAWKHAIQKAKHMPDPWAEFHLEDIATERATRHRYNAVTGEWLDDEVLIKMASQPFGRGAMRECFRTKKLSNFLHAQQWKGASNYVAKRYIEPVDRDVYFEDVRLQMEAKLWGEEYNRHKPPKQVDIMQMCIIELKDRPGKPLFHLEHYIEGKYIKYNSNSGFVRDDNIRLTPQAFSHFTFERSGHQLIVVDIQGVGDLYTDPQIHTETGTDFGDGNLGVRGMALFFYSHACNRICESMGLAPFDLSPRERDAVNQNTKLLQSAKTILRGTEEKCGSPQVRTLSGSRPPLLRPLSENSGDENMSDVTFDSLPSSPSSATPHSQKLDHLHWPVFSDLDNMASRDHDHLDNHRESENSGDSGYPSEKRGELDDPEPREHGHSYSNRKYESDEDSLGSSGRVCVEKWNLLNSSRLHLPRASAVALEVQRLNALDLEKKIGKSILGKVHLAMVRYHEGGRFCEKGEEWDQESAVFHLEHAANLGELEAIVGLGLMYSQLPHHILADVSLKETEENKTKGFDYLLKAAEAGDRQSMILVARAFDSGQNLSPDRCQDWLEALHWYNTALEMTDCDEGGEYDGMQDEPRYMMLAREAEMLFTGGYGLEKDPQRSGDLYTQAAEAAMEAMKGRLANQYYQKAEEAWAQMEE

[23] = target: T2, Inhibitor of nuclear factor kappa-B kinase subunit beta (Homo sapiens, UniProt O14920); experiment: Inhibition of IKK2 (unknown origin) in presence of gamma33-ATP
T2 sequence (O14920 whole entry): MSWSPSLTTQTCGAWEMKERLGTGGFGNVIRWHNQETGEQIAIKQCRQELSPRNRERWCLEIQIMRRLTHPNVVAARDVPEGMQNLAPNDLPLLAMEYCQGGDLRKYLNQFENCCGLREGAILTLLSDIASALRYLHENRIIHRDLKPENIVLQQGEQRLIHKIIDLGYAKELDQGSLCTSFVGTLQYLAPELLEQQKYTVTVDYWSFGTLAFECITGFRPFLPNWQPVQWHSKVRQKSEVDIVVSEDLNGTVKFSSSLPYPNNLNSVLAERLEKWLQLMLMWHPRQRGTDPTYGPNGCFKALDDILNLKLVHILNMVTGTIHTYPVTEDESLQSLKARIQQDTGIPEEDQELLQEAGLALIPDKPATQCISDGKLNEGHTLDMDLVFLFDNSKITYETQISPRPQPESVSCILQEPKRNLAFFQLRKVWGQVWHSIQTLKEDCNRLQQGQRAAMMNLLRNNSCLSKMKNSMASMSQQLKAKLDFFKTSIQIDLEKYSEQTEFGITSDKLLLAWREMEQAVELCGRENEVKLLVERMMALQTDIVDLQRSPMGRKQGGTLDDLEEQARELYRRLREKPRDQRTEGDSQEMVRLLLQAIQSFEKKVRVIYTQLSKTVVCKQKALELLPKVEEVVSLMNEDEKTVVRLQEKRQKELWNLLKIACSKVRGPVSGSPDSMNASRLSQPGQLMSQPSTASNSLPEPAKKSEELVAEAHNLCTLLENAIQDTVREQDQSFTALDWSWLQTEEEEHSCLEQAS

[24] = target: Serine/threonine-protein kinase Nek6 (Homo sapiens, UniProt Q9HC98); experiment: Inhibition of NEK6 (unknown origin) in presence of gamma33-ATP
Sequence of Serine/threonine-protein kinase Nek6 (Q9HC98 whole entry): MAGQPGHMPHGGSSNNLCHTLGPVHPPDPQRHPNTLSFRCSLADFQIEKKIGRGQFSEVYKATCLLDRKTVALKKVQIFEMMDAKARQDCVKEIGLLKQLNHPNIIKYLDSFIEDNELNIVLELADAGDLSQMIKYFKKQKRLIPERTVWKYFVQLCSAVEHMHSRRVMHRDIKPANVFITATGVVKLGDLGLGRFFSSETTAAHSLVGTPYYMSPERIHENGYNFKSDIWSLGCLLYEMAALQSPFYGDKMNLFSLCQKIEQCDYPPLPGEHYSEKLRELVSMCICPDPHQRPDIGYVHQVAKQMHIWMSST

[25] = target: Serine/threonine-protein kinase NIM1 (Homo sapiens, UniProt Q8IY84); experiment: Inhibition of NIM1 (unknown origin) in presence of gamma33-ATP
Sequence of Serine/threonine-protein kinase NIM1 (Q8IY84 whole entry): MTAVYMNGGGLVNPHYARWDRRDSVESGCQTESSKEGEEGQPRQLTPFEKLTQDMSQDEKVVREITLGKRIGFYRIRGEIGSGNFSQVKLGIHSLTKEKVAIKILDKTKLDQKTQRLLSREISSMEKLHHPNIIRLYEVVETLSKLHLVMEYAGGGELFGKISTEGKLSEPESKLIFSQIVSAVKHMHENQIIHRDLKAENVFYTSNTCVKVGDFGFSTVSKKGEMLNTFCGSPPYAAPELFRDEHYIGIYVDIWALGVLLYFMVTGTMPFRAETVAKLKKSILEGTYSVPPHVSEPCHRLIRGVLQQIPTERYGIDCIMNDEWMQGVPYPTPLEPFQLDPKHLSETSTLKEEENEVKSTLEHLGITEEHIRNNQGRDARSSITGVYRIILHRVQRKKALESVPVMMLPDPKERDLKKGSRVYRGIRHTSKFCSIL

[26] = test system: Mus musculus; experiment: Toxicity in SCID mouse xenografted with human KARPAS299 cells assessed as body weight loss at 30 to 60 mg/kg, po bid administered for 10 days; format: organism-based, KARPAS-299; conditions: in vivo, 240 h

For `CN1CCN(c2ccc(C(=O)Nc3n[nH]c4ccc(Cc5cc(F)cc(F)c5)cc34)c(NC3CCOCC3)c2)CC1` [ENTRECTINIB], the solubility [1] was 20 µM (≈ 11.2 µg/mL), the CLint scaled [2] was 33 mL/min/kg and the half-life [3] was 3.59 h. The Cmax [4] was 1330 nM, the half-life [5] was 2.94 h and the Cmax [6] was 11000 nM. The Cmax [7] was 500 nM, the Tmax [8] was 3.08 h and the bioavailability [9] was 43%. It also gave a Cmax [10] of 8600 nM, a clearance [11] of 17.5 mL/min/kg and a half-life [12] of 11.9 h. The Cmax [13] was 600 nM, the Tmax [14] was 2 h and the half-life [15] was 15.2 h. It also gave a bioavailability [16] of 32%, an IC50 [17] of 17 nM and an IC50 [18] of 68 nM. For the same compound, the IC50 [19] was 81 nM, the IC50 [20] was 81 nM and the IC50 [21] was > 1000 nM. The IC50 [22] was > 10000 nM, the IC50 [23] was > 10000 nM and the IC50 [24] was > 10000 nM. For the same compound, the IC50 [25] was > 10000 nM and the Activity [26] was “Non-toxic”.

Reference: ChEMBL document CHEMBL3804811 (J Med Chem, 2016)
